Starred links: 1 amine or outer side, 2 acyl side, 3 side chain; linkers in the order of their positions; H or OH if unused. Positions of bridges follow the written chain, without caps; N, C: chain ends. Non-standard residues stand in square brackets, D forms with d. Residues, ends and D or L forms follow the SMILES beside them. dTyr(3,5-I2) = N[C@H](Cc1cc(I)c(O)c(I)c1)C(=O)O; dTyr(3-I) = N[C@H](Cc1ccc(O)c(I)c1)C(=O)O; X1 = O=C(CC1(S[*:2])CCCCC1)[*:1]
Molecular target: vasopressin receptors (V2 -receptors) (Sus scrofa, UniProt P32307)
Experiment: biochemical
Description: These values represent total and non-specific binding, respectively.

Chain of vasopressin receptors (V2 -receptors) (P32307 whole entry): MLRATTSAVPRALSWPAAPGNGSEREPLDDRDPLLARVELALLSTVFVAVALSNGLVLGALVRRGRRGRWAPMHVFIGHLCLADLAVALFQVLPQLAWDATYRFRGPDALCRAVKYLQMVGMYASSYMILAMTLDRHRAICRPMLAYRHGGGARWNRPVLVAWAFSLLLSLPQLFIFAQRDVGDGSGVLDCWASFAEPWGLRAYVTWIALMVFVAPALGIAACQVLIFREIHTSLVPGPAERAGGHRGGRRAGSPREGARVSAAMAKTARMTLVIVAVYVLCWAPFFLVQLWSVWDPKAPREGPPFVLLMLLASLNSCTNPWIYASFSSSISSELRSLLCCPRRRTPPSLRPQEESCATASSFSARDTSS

Work on `CC(C)[C@@H]1NC(=O)[C@H](Cc2ccccc2)NC(=O)[C@@H](Cc2ccc(O)cc2)NC(=O)CC2(CCCCC2)SSC[C@@H](C(=O)N2CCC[C@H]2C(=O)N[C@@H](CCCN=C(N)N)C(=O)NCC(N)=O)NC(=O)[C@H](CC(N)=O)NC1=O` [A, [Pmp^1, D-Tyr^2, Val^4]AVP, reference compound] ([dY]FVNCPRG-NH2; linker N-5 via X1) yielded a Kb of 100 nM.

`CC(C)[C@@H]1NC(=O)[C@H](Cc2ccccc2)NC(=O)[C@@H](Cc2ccc(O)c(I)c2)NC(=O)CC2(CCCCC2)SSC[C@@H](C(=O)N2CCC[C@H]2C(=O)N[C@@H](CCCNC(=N)N)C(=O)NCC(N)=O)NC(=O)[C@H](CC(N)=O)NC1=O` [B, [Pmp^1, D-Tyr(I)^2, Val^4]AVP] ([dTyr(3-I)]FVNCPRG-NH2; linker N-5 via X1) showed a Kb of 120 nM.

With `CC(C)[C@@H]1NC(=O)[C@H](Cc2ccccc2)NC(=O)[C@@H](Cc2cc(I)c(O)c(I)c2)NC(=O)CC2(CCCCC2)SSC[C@@H](C(=O)N2CCC[C@H]2C(=O)N[C@@H](CCCNC(=N)N)C(=O)NCC(N)=O)NC(=O)[C@H](CC(N)=O)NC1=O` [C, [Pmp^1, D-Tyr(I2)^2, Val^4]AVP] ([dTyr(3,5-I2)]FVNCPRG-NH2; linker N-5 via X1) the Kb was 2400 nM.

From US4469680A, “Iodinated vasopressin antagonists” (SmithKline Beckman Corporation, priority 1983, dated 1984)
